Measured values published in the NIST ThermoML archive (doi:10.1016/j.jct.2012.02.028).

Experiment: molar heat capacity at constant pressure
Settings: 101.33 kPa, Crystal, Vacuum adiabatic calorimetry

O=C([O-])[O-].[Zn+2] [zinc(II) carbonate]
Settings | molar heat capacity at constant pressure [J/K/mol]
4.397 K | 0.009408
4.399 K | 0.007545
4.757 K | 0.006774
4.774 K | 0.006545
5 K | 0.00773
5.101 K | 0.008038
5.155 K | 0.008164
5.346 K | 0.01084
5.423 K | 0.0117
5.582 K | 0.01132
5.688 K | 0.00813
5.816 K | 0.01409
5.946 K | 0.01317
6.06 K | 0.0142
6.285 K | 0.01382
6.398 K | 0.01585
6.723 K | 0.01601
6.824 K | 0.01961
7.156 K | 0.02326
7.254 K | 0.02331
7.601 K | 0.02683
7.692 K | 0.02785
8.054 K | 0.03096
8.134 K | 0.03204
8.509 K | 0.03516
8.576 K | 0.03774
8.961 K | 0.04103
9.021 K | 0.04305
9.412 K | 0.0479
9.468 K | 0.05013
9.862 K | 0.05547
9.915 K | 0.05829
10 K | 0.05961
10.54 K | 0.07294
10.59 K | 0.07477
11.45 K | 0.09358
11.5 K | 0.09604
12.37 K | 0.1193
12.41 K | 0.1215
13.29 K | 0.1517
13.33 K | 0.153
14.22 K | 0.1928
14.26 K | 0.193
15 K | 0.2346
15.15 K | 0.245
15.18 K | 0.2446
16.08 K | 0.2992
16.12 K | 0.2986
17.02 K | 0.3595
17.05 K | 0.3608
17.97 K | 0.4461
17.99 K | 0.4463
18.91 K | 0.535
18.93 K | 0.5407
19.85 K | 0.6305
19.88 K | 0.6346
20 K | 0.6547
21.27 K | 0.8212
21.29 K | 0.8243
23.14 K | 1.091
23.17 K | 1.096
25 K | 1.427
25.06 K | 1.439
26.95 K | 1.841
28.85 K | 2.31
30 K | 2.613
30.77 K | 2.836
32.69 K | 3.401
34.62 K | 4.038
35 K | 4.162
36.33 K | 4.607
36.56 K | 4.711
38.5 K | 5.446
38.58 K | 5.466
40 K | 6.03
40.52 K | 6.253
42.46 K | 7.047
44.41 K | 7.863
45 K | 8.122
46.36 K | 8.699
48.32 K | 9.572
50 K | 10.39
50.28 K | 10.5
52.24 K | 11.48
54.21 K | 12.47
55 K | 12.79
56.18 K | 13.4
58.15 K | 14.28
60 K | 15.28
60.13 K | 15.34
62.1 K | 16.36
64.08 K | 17.36
65 K | 17.8
66.07 K | 18.36
68.03 K | 19.3
69.94 K | 20.27
70 K | 20.32
72.36 K | 21.49
75 K | 22.79
75.35 K | 22.97
78.35 K | 24.46
79.92 K | 25.19
80 K | 25.24
83.21 K | 26.77
85 K | 27.63
86.23 K | 28.21
89.26 K | 29.61
90 K | 29.96
92.3 K | 31
95 K | 32.21
95.35 K | 32.37
98.41 K | 33.68
100 K | 34.37
101.48 K | 34.99
104.55 K | 36.23
105 K | 36.41
107.64 K | 37.47
110 K | 38.38
110.74 K | 38.65
113.84 K | 39.83
115 K | 40.26
116.95 K | 40.98
120 K | 42.07
120.07 K | 42.09
123.2 K | 43.18
126.34 K | 44.26
129.51 K | 45.31
130 K | 45.47
132.66 K | 46.33
135.83 K | 47.34
139 K | 48.32
140 K | 48.63
142.19 K | 49.32
145.38 K | 50.23
148.58 K | 51.14
150 K | 51.6
151.79 K | 52.15
155.01 K | 53.02
158.25 K | 53.93
160 K | 54.36
161.49 K | 54.75
164.72 K | 55.64
167.92 K | 56.45
170 K | 56.93
171.08 K | 57.17
174.21 K | 57.91
177.3 K | 58.72
180 K | 59.33
180.39 K | 59.37
183.43 K | 60.04
186.44 K | 60.81
189.44 K | 61.49
190 K | 61.57
192.42 K | 62.17
195.37 K | 62.73
198.3 K | 63.33
200 K | 63.68
201.2 K | 63.91
204.09 K | 64.5
206.97 K | 65.04
209.83 K | 65.68
210 K | 65.75
212.67 K | 66.32
215.51 K | 66.8
218.32 K | 67.43
220 K | 67.73
221.12 K | 67.91
223.9 K | 68.47
226.71 K | 68.96
229.46 K | 69.59
230 K | 69.62
232.21 K | 70.19
234.93 K | 70.69
237.65 K | 71.17
240 K | 71.45
240.37 K | 71.48
243.07 K | 71.89
245.76 K | 72.45
248.45 K | 72.82
250 K | 73.2
251.12 K | 73.38
253.79 K | 73.81
256.45 K | 74.15
259.09 K | 74.66
260 K | 74.88
261.74 K | 75.21
264.38 K | 75.75
267.01 K | 76.21
269.71 K | 76.37
270 K | 76.38
272.34 K | 76.67
273.15 K | 76.84
274.96 K | 77.02
277.57 K | 77.36
280 K | 77.83
280.18 K | 77.77
282.78 K | 78.17
285.37 K | 78.56
287.95 K | 78.94
290 K | 79.24
290.53 K | 79.31
293.11 K | 79.67
295.68 K | 80.03
298.15 K | 80.36
298.24 K | 80.38
300 K | 80.6
300.8 K | 80.74
303.36 K | 81.1
305.91 K | 81.42
308.46 K | 81.77
310 K | 81.91
311.15 K | 82.06
313.7 K | 82.4
316.26 K | 82.71
318.8 K | 83
320 K | 83.17
321.35 K | 83.28
